Test results taken from patent publication US9120854B2, “Detection and treatment of pancreatic, ovarian and other cancers” (SEATTLE GENETICS, INC., priority 2008, dated 2015).
Where two headings read alike, the source gives them in different places. Square brackets hold non-standard residues; d marks the D form. Peptide text beside a SMILES is read from it. Dolaproine = CO[C@@H]([C@@H]1CCCN1)[C@@H](C)C(=O)O; Dil = CC[C@H](C)[C@H](NC)[C@@H](CC(=O)O)OC; NMeV = CN[C@H](C(=O)O)C(C)C

Tests used:
SKOV-3 cells = assay: In vitro cytotoxic activity of h1F6 antibody drug conjugates on SKOV-3 cells (CelltiterGlo viability); assay type: cell-based; details: 96 hours, viability by Promega CelltiterGlo
Method: (See International Patent Publication WO 2006-113909.) The cells were incubated with the following anti-CD70 antibody drug conjugates: h1F6-vc-MMAF(4), h1F6vc-MMAE(4), 1F6mc-MMAF(4), or h1F6mc-MMAF(8) or free MMAF. (See the specification and U.S. Patent Application Publication Nos. 2005-0238649 and 2006-0233794 for a description of the drug linkers. The number in parentheses after each conjugate indicates the average drug loading per antibody.) The SKOV-3 cells were incubated with the conjugates at the indicated concentrations for 96 hours. For these studies, viability was determined using Promega CelltiterGlo.

[1] = test system: native CD70 protein (modified cynomolgus CD70); assay: Binding of h1F6 to native CD70 on transfected pancreatic cell lines; details: transfected HPAFII, PANC-1 and MiaPaCa-2 cell lines

CC[C@H](C)[C@@H]([C@@H](CC(=O)N1CCC[C@H]1[C@H](OC)[C@@H](C)C(=O)N[C@@H](Cc1ccccc1)C(=O)O)OC)N(C)C(=O)[C@@H](NC(=O)[C@@H](NC)C(C)C)C(C)C [MMAF, dovaline-valine-dolaisoleunine-dolaproine-phenylalanine, reference compound] (H-[NMeV]V[Dil][Dolaproine]F-OH)
IC50 (SKOV-3 cells; free MMAF, read-out: IC50): 18 nM

h1F6: humanized form of anti-CD70 monoclonal antibody 1F6, binds native CD70
binding to native CD70 protein [1]: binds

B1: h1F6mc-MMAF(8) (conjugate, chains of the INN, looked up)
VH: QVQLVQSGAEVKKPGASVKVSCKASGYTFTNYGMNWVRQAPGQGLKWMGWINTYTGEPTYADAFKGRVTMTRDTSISTAYMELSRLRSDDTAVYYCARDYGDYGMDYWGQGTTVTVSS
VL: DIVMTQSPDSLAVSLGERATINCRASKSVSTSGYSFMHWYQQKPGQPPKLLIYLASNLESGVPDRFSGSGSGTDFTLTISSLQAEDVAVYYCQHSREVPWTFGQGTKVEIK
modifications: maleimidocaproyl-MMAF, 8 drugs per antibody
IC50 (SKOV-3 cells): 0.012 µg/mL
